Assay results as given in patent US8431610B2, “Alkanoylamino benzamide aniline HDAC inhibitor compounds” (Gilead Sciences, Inc., priority 2009, dated 2013).

How the values were obtained:
HDAC-1 = HDAC-1 (Homo sapiens, UniProt Q13547); test: HDAC inhibitory activity assay with HDAC-1 (fluorophore/quencher peptide substrate); type: biochemical; details: enzyme/compound mix incubated at room temperature for 2 hours; reaction about 45 minutes; fluorescence read
Experimental: (§1) HDAC inhibitory activity of the compound of Example 1 was measured by an assay in which HDAC-1 or -3 were used as a target molecule. The test compound was suspended in and titrated in DMSO. It was then spotted into a 384-well test plate. The enzyme, HDAC-1 or -3, was diluted in assay buffer containing 25 mM Tris-HCl (pH 8.0), 137 mM NaCl, 2.7 mM KCl, and 0.01% Tween-20 and added to the pre-spotted compound. The enzyme/compound mix was incubated at room temperature for 2 hours. The peptide substrate containing a fluorophore/quencher pair was diluted in the same assay buffer and added to the compound/enzyme mix initiating the reaction. The reaction incubated at room temperature for about 45 minutes. A concentrated developer solution was diluted in the assay buffer, and added to the reaction. The reaction was incubated at room temperature for about 15 minutes and relative fluorescence was read on an instrument reader.

HDAC-3 = HDAC-3 (Homo sapiens, UniProt O15379); test: HDAC inhibitory activity assay with HDAC-3 (fluorophore/quencher peptide substrate); type: biochemical; details: enzyme/compound mix incubated at room temperature for 2 hours; reaction about 45 minutes; fluorescence read
Experimental: as §1

Chain of HDAC-1 (Q13547 whole entry, species assumed): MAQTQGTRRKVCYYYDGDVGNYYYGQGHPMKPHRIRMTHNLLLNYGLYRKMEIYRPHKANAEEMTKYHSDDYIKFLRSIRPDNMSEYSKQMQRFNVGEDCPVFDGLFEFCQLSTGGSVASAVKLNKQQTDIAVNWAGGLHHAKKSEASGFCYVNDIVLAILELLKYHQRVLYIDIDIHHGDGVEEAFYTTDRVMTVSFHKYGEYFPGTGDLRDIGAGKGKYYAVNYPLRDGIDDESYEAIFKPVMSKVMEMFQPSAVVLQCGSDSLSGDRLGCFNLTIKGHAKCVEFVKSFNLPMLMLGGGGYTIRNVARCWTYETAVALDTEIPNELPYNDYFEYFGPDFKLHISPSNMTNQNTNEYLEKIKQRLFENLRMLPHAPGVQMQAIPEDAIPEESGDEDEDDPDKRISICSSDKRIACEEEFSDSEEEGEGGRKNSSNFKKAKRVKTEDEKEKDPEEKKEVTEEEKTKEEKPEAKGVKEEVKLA
Chain of HDAC-3 (O15379 whole entry, species assumed): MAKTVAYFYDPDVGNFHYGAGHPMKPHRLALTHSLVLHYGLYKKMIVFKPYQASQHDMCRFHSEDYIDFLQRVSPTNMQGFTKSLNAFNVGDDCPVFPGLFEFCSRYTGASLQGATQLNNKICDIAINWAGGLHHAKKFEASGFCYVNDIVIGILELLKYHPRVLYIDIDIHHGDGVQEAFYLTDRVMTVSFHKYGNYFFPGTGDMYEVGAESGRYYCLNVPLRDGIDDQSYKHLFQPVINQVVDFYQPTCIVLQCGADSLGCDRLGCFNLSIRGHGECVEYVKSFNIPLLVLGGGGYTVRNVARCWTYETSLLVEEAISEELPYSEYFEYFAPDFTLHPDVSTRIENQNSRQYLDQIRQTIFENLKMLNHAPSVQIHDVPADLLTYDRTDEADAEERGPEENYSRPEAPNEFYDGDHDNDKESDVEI
Chain of HDAC-3 (Q9Y618 395-489 partner limits assumed, species assumed): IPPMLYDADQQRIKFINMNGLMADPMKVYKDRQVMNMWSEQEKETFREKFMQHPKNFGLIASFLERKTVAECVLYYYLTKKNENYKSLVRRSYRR

SMILES | IC50 (HDAC-1) [µM] | IC50 (HDAC-3) [µM]
CC(C(=O)Nc1ccc(C(=O)Nc2ccccc2N)cc1)N1CCCC1 (centres unmarked) [Example 1, N-(2-Amino-phenyl)-4-(2-pyrrolidin-1-yl-propionylamino)-benzamide] | 0.201 | –
CC(C(=O)Nc1ccc(C(=O)Nc2cc(-c3ccc(F)cc3)ccc2N)cc1)N1CCCC1 (centres unmarked) [Example 2, N-(2-Amino-5-(4-fluorophenyl)phenyl)-4-(2-(pyrrolidin-1-yl)propanamido)benzamide] | 0.003 | 3.11
CC(C(=O)Nc1ccc(C(=O)Nc2cc(-c3cccs3)ccc2N)cc1)N1CCCC1 (centres unmarked) [Example 3, N-(2-Amino-5-(thiophen-2-yl)phenyl)-4-(2-(pyrrolidin-1-yl)propanamido)benzamide] | 0.003 | 2.1
CC(C(=O)Nc1ccc(C(=O)Nc2ccccc2N)cc1)N1CCCC1=O (centres unmarked) [Example 4, N-(2-Aminophenyl)-4-(2-(2-oxopyrrolidin-1-yl)propanamido)benzamide] | 0.0915 | 0.3
CC(C(=O)Nc1ccc(C(=O)Nc2cc(-c3cccs3)ccc2N)cc1)N1CCCC1=O (centres unmarked) [Example 5, N-(2-Amino-5-(thiophen-2-yl)phenyl)-4-(2-(2-oxopyrrolidin-1-yl)propanamido)benzamide] | 0.0016 | 1.04
Nc1ccccc1NC(=O)c1ccc(NC(=O)C(c2ccccc2)N2CCOCC2)cc1 (centres unmarked) [Example 6, N-(2-aminophenyl)-4-(2-morpholino-2-phenylacetamido)benzamide] | 0.0253 | 0.144
CC(C(=O)Nc1ccc(C(=O)Nc2cc(-c3ccc(F)cc3)ccc2N)cc1)N1CCCC1=O (centres unmarked) [Example 7, N-(2-Amino-5-(4-fluorophenyl)phenyl)-4-(2-(2-oxopyrrolidin-1-yl)propanamido)benzamide] | 0.0027 | 1.54
CC(C(=O)Nc1ccc(C(=O)Nc2cc(-c3cccs3)ccc2N)cc1)N1CCOCC1 (centres unmarked) [Example 8, N-(2-Amino-5-(thiophen-2-yl)phenyl)-4-(2-morpholinopropanamido)benzamide] | 0.0028 | 1.35
CC(C(=O)Nc1ccc(C(=O)Nc2cc(-c3ccc(F)cc3)ccc2N)cc1)N1CCOCC1 (centres unmarked) [Example 9] | 0.0047 | 3.06
CC(C)(C(=O)Nc1ccc(C(=O)Nc2cc(-c3ccc(F)cc3)ccc2N)cc1)N1CCOCC1 [Example 10, N-(2-Amino-5-(4-fluorophenyl)phenyl)-4-(2-methyl-2-morpholinopropanamido)benzamide] | 0.0041 | 3.63
CC(C(=O)Nc1ccc(C(=O)Nc2cc(-c3cccs3)ccc2N)cc1F)N1CCCC1=O (centres unmarked) [Example 11, N-(2-Amino-5-(thiophen-2-yl)phenyl)-3-fluoro-4-(2-(2-oxopyrrolidin-1-yl)propanamido)benzamide] | 0.0019 | 1.04
CC(C(=O)Nc1ccc(C(=O)Nc2cc(-c3ccc(Cl)s3)ccc2N)cc1)N1CCCC1=O (centres unmarked) [Example 12, N-(2-Amino-5-(5-chlorothiophen-2-yl)phenyl)-4-(2-(2-oxopyrrolidin-1-yl)propanamido)benzamide] | 0.0071 | 2.23
